From patent US9789096B2, “Methods and compositions for selective and targeted cancer therapy” (Board of Regents of the University of Texas System, priority 2013, dated 2017)

Target: T1, HMOX2 (Homo sapiens, UniProt P30519)
T1 construct: endogenous in cells; host or cells: H2122 cells (homogenate / lysate)
Assay: Immunoprecipitation of SW208108-bound protein with anti-HMOX2
Type: binding
Source text: FIG. 7M. HMOX2 binds to SW208108 and is partially competed by an active competitor. Lysates collected from H2122 cells treated with SW208108 with or without competitor were immunoprecipitated with either IgG or anti-HMOX2 and then “clicked” to a dye-azide (as described in FIG. 7A). HMOX2 binds to SW208108 and binding is partially diminished in the presence of a competitor.
However, when HO2 was knocked out from H2122 cells using Crisper technology (FIG. 7O), no toxicity was observed, and SW208108 and related compounds retained toxicity towards H2122 cells (FIG. 7P). We conclude that HO2 is not required for cell survival or for the cytotoxicity of the selective toxins.

T1 sequence (P30519 whole entry): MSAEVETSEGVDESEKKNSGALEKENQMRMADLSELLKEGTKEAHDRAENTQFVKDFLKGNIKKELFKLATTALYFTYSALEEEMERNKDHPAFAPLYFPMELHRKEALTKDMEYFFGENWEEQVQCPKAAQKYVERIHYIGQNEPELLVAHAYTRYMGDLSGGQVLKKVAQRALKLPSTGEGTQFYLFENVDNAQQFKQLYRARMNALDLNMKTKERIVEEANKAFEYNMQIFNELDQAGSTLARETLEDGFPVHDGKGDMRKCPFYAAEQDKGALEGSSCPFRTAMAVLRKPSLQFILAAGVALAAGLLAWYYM

## C#CCOc1ccc(C(=O)c2ccc(NC(=O)C(=O)NCCc3ccc(OC)cc3)cc2)cc1 [SW208108]
  covalent binding to HO2 (HMOX2): covalently bound
